{"source": "ChEMBL document CHEMBL5390201", "about": "“The Natural Alkaloid (-)-N-Hydroxyapiosporamide Suppresses Colorectal Tumor Progression as an NF-κB Pathway Inhibitor by Targeting the TAK1-TRAF6 Complex” (J Nat Prod, 2023)", "key": {"[1]": {"system": "HCT-116", "test": "Induction of apoptosis in human HCT-116 cells assessed as necrotic cells at 5 uM preincubated with Z-VAD-FMK for 1 hr followed by compound addition and measured after 24 hrs by Annexin V-FITC/PI staining based flow cytometric analysis (reference value: 0.34 %)", "format": "functional"}, "[2]": {"test": "Toxicity in athymic nude BALB/c mouse xenografted with human HCT-116 cells assessed as pathological changes in heart at 5 to 15 mg/kg, ip administered every other day and measured after 14 days by hematoxylin and eosin staining-based microscopic analysis", "format": "organism-based", "conditions": "in vivo, 336 h, dose 5-15 mg/kg, time 14 day"}, "[3]": {"system": "HT-29", "test": "Induction of apoptosis in human HT-29 cells assessed as viable cells at 10 uM incubated for 24 hrs by Annexin V-FITC/PI staining based flow cytometric analysis (reference value: 93 %)", "format": "functional", "conditions": "read-out: Activity"}, "[4]": {"system": "HT-29", "test": "Induction of apoptosis in human HT-29 cells assessed as early apoptotic cells at 5 uM incubated for 24 hrs by Annexin V-FITC/PI staining based flow cytometric analysis (reference value: 4.39 %)", "format": "functional"}, "[5]": {"system": "Mus musculus", "test": "In vivo inhibition of NFkappaB activation in LPS-induced BALB/c mouse model of endotoxin shock assessed as reduction in TNF-alpha level in serum at 5 mg/kg, ip pretreated for 4 hrs followed by LPS stimulation for 1 hr by ELISA", "format": "functional, organism-based", "conditions": "time 5.0 hrs"}, "[6]": {"system": "Mus musculus", "test": "In vivo inhibition of NFkappaB activation in athymic BALB/c mouse xenografted with human HCT-116 cells assessed as reduction in IL-8 gene expression in tumor at 15 mg/kg, ip administered every other day and measured after 14 days by qRT-PCR analysis", "format": "functional, organism-based", "conditions": "time 14.0 day"}, "[7]": {"system": "HT-29", "test": "Induction of apoptosis in human HT-29 cells assessed as late apoptotic cells at 5 uM incubated for 24 hrs by Annexin V-FITC/PI staining based flow cytometric analysis (reference value: 6.91 %)", "format": "functional"}, "[8]": {"target": "T1, Nuclear factor NF-kappa-B complex (Homo sapiens) (UniProt Q00653+P19838+Q04206)", "T1 sequence (P19838 whole entry, looked up)": "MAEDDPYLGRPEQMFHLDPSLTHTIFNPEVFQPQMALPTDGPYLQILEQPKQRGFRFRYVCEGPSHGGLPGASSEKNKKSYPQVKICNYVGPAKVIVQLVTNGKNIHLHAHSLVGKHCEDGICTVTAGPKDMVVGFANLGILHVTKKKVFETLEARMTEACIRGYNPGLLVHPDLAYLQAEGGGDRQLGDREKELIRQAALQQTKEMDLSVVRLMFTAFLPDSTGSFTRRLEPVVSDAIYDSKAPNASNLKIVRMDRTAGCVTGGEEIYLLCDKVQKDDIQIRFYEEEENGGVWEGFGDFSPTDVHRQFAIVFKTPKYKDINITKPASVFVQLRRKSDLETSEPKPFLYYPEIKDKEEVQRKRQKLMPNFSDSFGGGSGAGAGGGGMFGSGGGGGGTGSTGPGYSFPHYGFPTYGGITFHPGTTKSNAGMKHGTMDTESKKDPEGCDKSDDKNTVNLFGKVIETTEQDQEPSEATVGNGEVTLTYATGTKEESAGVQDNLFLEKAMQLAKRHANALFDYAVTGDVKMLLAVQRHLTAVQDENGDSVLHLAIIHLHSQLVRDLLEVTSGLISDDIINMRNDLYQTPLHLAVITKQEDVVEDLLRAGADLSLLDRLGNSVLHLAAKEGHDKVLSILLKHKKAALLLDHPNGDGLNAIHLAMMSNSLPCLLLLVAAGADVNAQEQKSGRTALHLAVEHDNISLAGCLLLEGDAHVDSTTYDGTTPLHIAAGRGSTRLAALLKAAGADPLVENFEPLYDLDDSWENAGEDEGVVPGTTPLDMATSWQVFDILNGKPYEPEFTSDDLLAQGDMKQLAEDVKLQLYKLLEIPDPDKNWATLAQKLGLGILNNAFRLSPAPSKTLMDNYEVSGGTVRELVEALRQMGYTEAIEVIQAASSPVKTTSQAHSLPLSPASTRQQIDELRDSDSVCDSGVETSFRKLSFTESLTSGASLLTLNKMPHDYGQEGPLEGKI", "T1 sequence (Q00653 whole entry, looked up)": "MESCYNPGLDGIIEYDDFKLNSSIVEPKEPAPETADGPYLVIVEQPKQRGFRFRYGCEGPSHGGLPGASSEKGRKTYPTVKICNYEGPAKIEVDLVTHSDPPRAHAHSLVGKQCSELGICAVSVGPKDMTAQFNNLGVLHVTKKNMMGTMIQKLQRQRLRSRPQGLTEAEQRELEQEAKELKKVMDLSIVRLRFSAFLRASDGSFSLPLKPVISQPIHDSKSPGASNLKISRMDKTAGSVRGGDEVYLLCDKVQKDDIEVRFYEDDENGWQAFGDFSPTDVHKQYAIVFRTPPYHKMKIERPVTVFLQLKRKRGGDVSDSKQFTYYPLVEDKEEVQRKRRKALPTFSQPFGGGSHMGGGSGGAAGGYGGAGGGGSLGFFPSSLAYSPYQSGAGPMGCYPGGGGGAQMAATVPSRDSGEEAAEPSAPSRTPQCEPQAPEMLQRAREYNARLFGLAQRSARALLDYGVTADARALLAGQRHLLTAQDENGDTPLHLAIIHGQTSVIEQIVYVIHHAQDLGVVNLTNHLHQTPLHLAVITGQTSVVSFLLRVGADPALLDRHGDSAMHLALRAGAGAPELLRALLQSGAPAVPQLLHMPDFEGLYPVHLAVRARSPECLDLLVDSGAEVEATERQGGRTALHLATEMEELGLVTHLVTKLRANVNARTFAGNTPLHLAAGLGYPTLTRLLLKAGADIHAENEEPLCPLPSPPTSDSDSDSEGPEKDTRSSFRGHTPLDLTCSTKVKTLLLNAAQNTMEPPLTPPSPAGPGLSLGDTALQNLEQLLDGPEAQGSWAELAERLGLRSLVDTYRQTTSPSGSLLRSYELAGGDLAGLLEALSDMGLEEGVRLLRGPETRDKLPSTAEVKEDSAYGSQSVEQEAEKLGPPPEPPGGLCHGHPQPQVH", "T1 sequence (Q04206 whole entry, looked up)": "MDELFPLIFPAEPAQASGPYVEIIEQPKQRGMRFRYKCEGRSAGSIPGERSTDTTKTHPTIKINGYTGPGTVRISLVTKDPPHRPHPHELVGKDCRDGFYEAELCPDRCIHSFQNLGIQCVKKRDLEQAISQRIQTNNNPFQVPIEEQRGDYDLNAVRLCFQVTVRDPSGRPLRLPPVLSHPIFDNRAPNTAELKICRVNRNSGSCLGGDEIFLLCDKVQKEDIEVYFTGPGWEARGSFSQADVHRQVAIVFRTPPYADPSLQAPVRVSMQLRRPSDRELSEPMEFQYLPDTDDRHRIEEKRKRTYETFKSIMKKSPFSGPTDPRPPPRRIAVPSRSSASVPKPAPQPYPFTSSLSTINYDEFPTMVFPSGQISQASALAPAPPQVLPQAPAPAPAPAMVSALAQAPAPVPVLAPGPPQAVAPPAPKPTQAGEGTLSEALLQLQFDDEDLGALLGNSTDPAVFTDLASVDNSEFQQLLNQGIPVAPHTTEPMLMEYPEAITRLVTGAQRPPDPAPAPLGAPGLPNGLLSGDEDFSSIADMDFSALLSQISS", "test": "Inhibition of TNF-alpha induced NFkappaB activation in human HT-29 cells assessed as downregulation of E-selectin gene expression pretreated for 24 hrs followed by TNFalpha stimulation and measured after 2 hrs by quantitative RT-PCR analysis", "format": "cell-based", "conditions": "dose 1-10 µM, time 26.0 hrs"}, "[9]": {"system": "HT-29", "test": "Induction of apoptosis in human HT-29 cells assessed as necrotic cells at 10 uM incubated for 24 hrs by Annexin V-FITC/PI staining based flow cytometric analysis (reference value: 0.14 %)", "format": "functional"}, "[10]": {"system": "HT-29", "test": "Induction of apoptosis in human HT-29 cells assessed as inhibition of caspase 3 protein expression measured for 24 hrs by Western blot analysis", "format": "functional, cell-based", "conditions": "dose 0-10 µM"}, "[11]": {"target": "T1, Nuclear factor NF-kappa-B complex (Homo sapiens)", "test": "Inhibition of TNF-alpha induced NFkappaB activation in human HT-29 cells assessed as downregulation of A20 gene expression pretreated for 24 hrs followed by TNFalpha stimulation and measured after 2 hrs by quantitative RT-PCR analysis", "format": "cell-based", "conditions": "dose 1-10 µM, time 26.0 hrs"}, "[12]": {"system": "HCT-116", "test": "Induction of apoptosis in human HCT-116 cells assessed as early apoptotic cells at 1 uM incubated for 24 hrs by Annexin V-FITC/PI staining based flow cytometric analysis (reference value: 7.22 %)", "format": "functional"}, "[13]": {"test": "Toxicity in athymic nude BALB/c mouse xenografted with human HCT-116 cells assessed as pathological changes in liver at 5 to 15 mg/kg, ip administered every other day and measured after 14 days by hematoxylin and eosin staining-based microscopic analysis", "format": "organism-based", "conditions": "in vivo, 336 h, dose 5-15 mg/kg, time 14 day"}, "[14]": {"system": "HT-29", "test": "Induction of apoptosis in human HT-29 cells assessed as viable cells at 5 uM preincubated with Z-VAD-FMK for 1 hr followed by compound addition and measured after 24 hrs by Annexin V-FITC/PI staining based flow cytometric analysis (reference value: 88.5 %)", "format": "functional", "conditions": "read-out: Activity"}, "[15]": {"system": "HT-29", "test": "Induction of autophagy in human HT-29 cells transfected with GFP-LC3 assessed as increase in LC3 dot puncta at 1 to 10 uM incubated for 24 hrs by fluorescence microscopy", "format": "functional, cell-based", "conditions": "dose 1-10 µM"}, "[16]": {"system": "HT-29", "test": "Induction of cell cycle arrest in human HT-29 cells assessed as decrease in CDK2 protein expression upto 10 uM incubated for 24 hrs by Western blot analysis", "format": "functional, cell-based"}, "[17]": {"system": "Cell membrane", "test": "Disruption of mitochondrial membrane potential in human HCT-116 cells at 0.25 to 10 uM measured after 24 hrs by JC-1 staining based flow cytometry analysis", "format": "subcellular", "conditions": "dose 0.25-10 µM"}, "[18]": {"system": "HCT-116", "test": "Antitumor activity against human HCT-116 cells xenografted in athymic nude BALB/c mouse assessed as induction of autophagy by measuring reduction in p62 expression in tumor at 15 mg/kg, ip administered every other day and measured after 14 days by immunohistochemistry analysis", "format": "functional, organism-based", "conditions": "time 14.0 day"}, "[19]": {"system": "Cell membrane", "test": "Disruption of mitochondrial membrane potential in human HT-29 cells at upto 10 uM measured after 24 hrs by JC-1 staining based fluorescence microscopy", "format": "subcellular"}, "[20]": {"system": "Mus musculus", "test": "In vivo inhibition of NFkappaB activation in AOM/DSS-induced inflammatory bowel disease BALB/c mouse model assessed as inhibition of serum TNF-alpha production at 5 to 10 mg/kg, ip pretreated with AOM for 7 days further replaced with DSS for 7 days and repeated for 2 times followed by every 2 days compound treatment for […] starting from day 50 by ELISA", "format": "functional, organism-based", "conditions": "dose 5-10 mg/kg, time 21.0 day"}, "[21]": {"system": "HT-29", "test": "Cytotoxicity against human HT-29 cells assessed as decrease in cell viability incubated for 48 hrs by SRB assay", "format": "functional, cell-based", "conditions": "HT-29, 48 h"}, "[22]": {"system": "HCT-116", "test": "Induction of autophagic flux in human HCT-116 cells assessed as increase in LC3I to LC3II conversion preincubated with 3-methyladenine for 1 hr followed by compound addition and measured after 24 hrs by Western blot analysis", "format": "functional, cell-based"}, "[23]": {"system": "HCT-116", "test": "Induction of autophagic flux in human HCT-116 cells assessed as increase in LC3I to LC3II conversion preincubated with chloroquine for 1 hr followed by compound addition and measured after 24 hrs by Western blot analysis", "format": "functional, cell-based"}, "[24]": {"system": "Mus musculus", "test": "Anti-inflammatory activity in AOM/DSS-induced BALB/c mouse model inflammatory bowel disease assessed as reduction in body weight at 5 to 10 mg/kg, ip pretreated with AOM for 7 days further replaced with DSS for 7 days and repeated for 2 times followed by every 2 days compound treatment for […] starting from day 50 […]", "format": "functional, organism-based", "conditions": "dose 5-10 mg/kg, time 21.0 day"}, "[25]": {"target": "T1, Nuclear factor NF-kappa-B complex (Homo sapiens)", "test": "Inhibition of TNF-alpha induced NFkappaB activation in human HCT-116 cells assessed as inhibition of IL-8 production at 2 uM pretreated for 24 hrs followed by TNFalpha stimulation for 4 hrs by ELISA", "format": "cell-based", "conditions": "time 28.0 hrs"}, "[26]": {"system": "HCT-116", "test": "Induction of cell cycle arrest in human HCT-116 cells assessed as decrease in cyclin B protein expression upto 10 uM incubated for 24 hrs by Western blot analysis", "format": "functional, cell-based"}, "[27]": {"system": "HCT-116", "test": "Induction of apoptosis in human HCT-116 cells assessed as early apoptotic cells at 5 uM incubated for 24 hrs by Annexin V-FITC/PI staining based flow cytometric analysis (reference value: 8.06 %)", "format": "functional"}, "[28]": {"system": "HT-29", "test": "Induction of autophagy in human HT-29 cells assessed as increase in LC3 protein expression at 1 to 10 uM incubated for 24 hrs by Western blot analysis", "format": "functional, cell-based", "conditions": "dose 1-10 µM"}, "[29]": {"system": "HCT-116", "test": "Induction of autophagy in human HCT-116 cells transfected with GFP-LC3 assessed as increase in LC3 dot puncta at 1 to 10 uM incubated for 24 hrs by fluorescence microscopy", "format": "functional, cell-based", "conditions": "dose 1-10 µM"}, "[30]": {"target": "T1, Nuclear factor NF-kappa-B complex (Homo sapiens)", "test": "Inhibition of TNF-alpha induced NFkappaB activation in human HCT-116 cells assessed as inhibition of IkappaBalpha degradation at 1 to 10 uM pretreated for 24 hrs followed by TNFalpha stimulation for 10 mins by Western blot analysis", "format": "cell-based", "conditions": "dose 1-10 µM, time 1450.0 min"}}, "note": "The source made the active and inactive calls. The rule behind the calls is not given here."}
{"smiles": "C[C@@H]1CC[C@H]2[C@H](C(=O)c3c(O)c([C@@]4(O)CC[C@@H](O)[C@H]5O[C@H]54)cn(O)c3=O)[C@H](C)C=C[C@@H]2C1", "values": [{"measurement": "Activity", "setting": "[1]", "result": 0.39, "unit": "%"}, {"measurement": "Activity", "setting": "[2]", "result": "Non-Toxic"}, {"measurement": "viability at 10 µM", "setting": "[3]", "result": 36.8, "unit": "%"}, {"measurement": "Activity", "setting": "[4]", "result": 28.3, "unit": "%"}, {"measurement": "inhibition", "setting": "[5]", "result": "Active"}, {"measurement": "inhibition", "setting": "[6]", "result": "Active"}, {"measurement": "Activity", "setting": "[7]", "result": 21.9, "unit": "%"}, {"measurement": "inhibition", "setting": "[8]", "result": "Dose-Dependent Effect"}, {"measurement": "Activity", "setting": "[9]", "result": 0.16, "unit": "%"}, {"measurement": "Activity", "setting": "[10]", "result": "Dose-Dependent Effect"}, {"measurement": "inhibition", "setting": "[11]", "result": "Dose-Dependent Effect"}, {"measurement": "Activity", "setting": "[12]", "result": 18.6, "unit": "%"}, {"measurement": "Activity", "setting": "[13]", "result": "Non-Toxic"}, {"measurement": "viability at 5 µM", "setting": "[14]", "result": 65.5, "unit": "%"}, {"measurement": "Activity", "setting": "[15]", "result": "Active"}, {"measurement": "Activity", "setting": "[16]", "result": "Active"}, {"measurement": "Activity", "setting": "[17]", "result": "Active"}, {"measurement": "Activity", "setting": "[18]", "result": "Active"}, {"measurement": "Activity", "setting": "[19]", "result": "Active"}, {"measurement": "inhibition", "setting": "[20]", "result": "Active"}, {"measurement": "IC50", "setting": "[21]", "result": 570, "unit": "nM"}, {"measurement": "Activity", "setting": "[22]", "result": "Active"}, {"measurement": "Activity", "setting": "[23]", "result": "Active"}, {"measurement": "Activity", "setting": "[24]", "result": "Active"}, {"measurement": "inhibition", "setting": "[25]", "result": "Active"}, {"measurement": "Activity", "setting": "[26]", "result": "Active"}, {"measurement": "Activity", "setting": "[27]", "result": 5.47, "unit": "%"}, {"measurement": "Activity", "setting": "[28]", "result": "Active"}, {"measurement": "Activity", "setting": "[29]", "result": "Active"}, {"measurement": "inhibition", "setting": "[30]", "result": "Active"}]}
